Laboratory results reported in ChEMBL document CHEMBL1201862, “PubChem BioAssay data set” (2004).
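In this assay, cells in 96-well plates receive the compound at five concentrations for 48 hours. Endpoints are linearly interpolated between the surrounding concentrations. GI50 is the concentration that inhibits growth by half.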 Active and inactive are the calls of the source. Cut-off read from the data, not from the text of the source: active = GI50 up to about 1.1 µM and inactive = higher.

Columns and labels:
Test in all cases: DTP human tumour cell line panel, 48 h
DMS-273 = system: DMS-273
SNB-19 = system: SNB-19
A498 = system: A498
MCF7 = system: MCF7
SF-539 = system: SF-539
HOP-62 = system: HOP-62
OVCAR-3 = system: OVCAR-3
SN12C = system: SN12C
UACC-257 = system: UACC-257
SNB-75 = system: SNB-75
DLD-1 = system: DLD-1
CAKI-1 = system: CAKI-1
UACC-62 = system: UACC-62
DU-145 = system: DU-145
HCT-116 = system: HCT-116
OVCAR-5 = system: OVCAR-5
COLO 205 = system: COLO 205
HL-60 = system: HL-60
SF-295 = system: SF-295
UO-31 = system: UO-31

## C=C(CN(C)C)C(=O)c1ccc(OC2OC(COC(C)=O)C(OC(C)=O)C(OC(C)=O)C2OC(C)=O)cc1 (centres undefined)
DMS-273
  GI50: 6.85 µM (inactive)
SNB-19
  GI50: 19.8 µM (inactive)
A498
  GI50: 14.1 µM (inactive)
MCF7
  GI50: 1.77 µM (inactive)
SF-539
  GI50: 10.1 µM (inactive)
HOP-62
  GI50: 15.3 µM (inactive)
OVCAR-3
  GI50: 2.25 µM (inactive)
SN12C
  GI50: 9.98 µM (inactive)
UACC-257
  GI50: 2.34 µM (inactive)
SNB-75
  GI50: 11.4 µM (inactive)
DLD-1
  GI50: 0.912 µM (active)
CAKI-1
  GI50: 1.59 µM (inactive)
UACC-62
  GI50: 4.7 µM (inactive)
DU-145
  GI50: 17.5 µM (inactive)
HCT-116
  GI50: 2.25 µM (inactive)
OVCAR-5
  GI50: 16.5 µM (inactive)
COLO 205
  GI50: 0.753 µM (active)
HL-60
  GI50: 0.456 µM (active)
SF-295
  GI50: 21.3 µM (inactive)
UO-31
  GI50: 2.34 µM (inactive)

## CC1OC(CO)(n2cnc3c(N)ncnc32)C(O)C1O (centres undefined)
DMS-273
  GI50: > 100 µM (inactive)
SNB-19
  GI50: > 100 µM (inactive)
A498
  GI50: > 100 µM (inactive)
MCF7
  GI50: > 100 µM (inactive)
SF-539
  GI50: > 100 µM (inactive)
HOP-62
  GI50: > 100 µM (inactive)
OVCAR-3
  GI50: > 100 µM (inactive)
SN12C
  GI50: > 100 µM (inactive)
UACC-257
  GI50: > 100 µM (inactive)
SNB-75
  GI50: > 100 µM (inactive)
DLD-1
  GI50: > 100 µM (inactive)
CAKI-1
  GI50: > 100 µM (inactive)
UACC-62
  GI50: > 100 µM (inactive)
HCT-116
  GI50: > 100 µM (inactive)
OVCAR-5
  GI50: > 100 µM (inactive)
COLO 205
  GI50: > 100 µM (inactive)
HL-60
  GI50: > 100 µM (inactive)
SF-295
  GI50: > 100 µM (inactive)
UO-31
  GI50: > 100 µM (inactive)
